According to ChEMBL document CHEMBL4052765, “Synthesis and antibacterial evaluation of novel 11-O-carbamoyl clarithromycin ketolides” (2017):
≈ marks a conversion by molar mass, not a printed value.

How the values were obtained:
Assay type in all cases: functional
Streptococcus pneumoniae [1] = assay: Antibacterial activity against erythromycin-resistant Streptococcus pneumoniae AB11 harboring harboring mef and erm gene after 24 h by NCCLS broth microdilution method; conditions: AB11, 24 h
Streptococcus pyogenes [2] = assay: Antibacterial activity against erythromycin-resistant Streptococcus pyogenes R1 after 24 h by NCCLS broth microdilution method; conditions: R1, 24 h
Streptococcus pneumoniae [3] = assay: Antibacterial activity against erythromycin-resistant Streptococcus pneumoniae A22072 harboring mef gene after 24 h by NCCLS broth microdilution method; conditions: A22072, 24 h
Streptococcus pneumoniae [4] = assay: Antibacterial activity against erythromycin-resistant Streptococcus pneumoniae B1 harboring erm gene after 24 h by NCCLS broth microdilution method; conditions: B1, 24 h
Staphylococcus aureus [5] = assay: Antibacterial activity against […] Staphylococcus aureus ATCC 29213 after 24 h by NCCLS broth microdilution method; conditions: ATCC 29213, 24 h
Bacillus subtilis = assay: Antibacterial activity against penicillin-susceptible Bacillus subtilis ATCC 9372 after 24 h by NCCLS broth microdilution method; conditions: ATCC 9372, 24 h
Pseudomonas aeruginosa = assay: Antibacterial activity against penicillin-susceptible Pseudomonas aeruginosa ATCC 27853 after 24 h by NCCLS broth microdilution method; conditions: ATCC 27853, 24 h
Streptococcus pyogenes [6] = assay: Antibacterial activity against erythromycin-susceptible Streptococcus pyogenes after 24 h by NCCLS broth microdilution method
Escherichia coli = assay: Antibacterial activity against penicillin-susceptible Escherichia coli ATCC 25922 after 24 h by NCCLS broth microdilution method; conditions: ATCC 25922, 24 h
Staphylococcus aureus [7] = assay: Antibacterial activity against erythromycin-susceptible Staphylococcus aureus ATCC 25923 after 24 h by NCCLS broth microdilution method; conditions: ATCC 25923, 24 h

Row | Structure (SMILES) | MIC (Streptococcus pneumoniae [1]) | MIC (Streptococcus pyogenes [2]) | MIC (Streptococcus pneumoniae [3]) | MIC (Streptococcus pneumoniae [4]) | MIC (Staphylococcus aureus [5]) | MIC (Bacillus subtilis) | MIC (Pseudomonas aeruginosa) | MIC (Streptococcus pyogenes [6]) | MIC (Escherichia coli) | MIC (Staphylococcus aureus [7])
1 | CC[C@H]1OC(=O)[C@H](C)C(=O)[C@H](C)[C@@H](O[C@@H]2O[C@H](C)C[C@H](N(C)C)[C@H]2O)[C@](C)(OC)C[C@@H](C)C(=O)[C@H](C)[C@@H](OC(=O)NCCNC(=O)c2ccc(Br)cc2)[C@]1(C)O | 64 µg/mL (≈ 74.7 µM) | > 128 µg/mL | 1 µg/mL (≈ 1.17 µM) | 128 µg/mL (≈ 149 µM) | 128 µg/mL (≈ 149 µM) | 1 µg/mL (≈ 1.17 µM) | 128 µg/mL (≈ 149 µM) | 2 µg/mL (≈ 2.33 µM) | > 128 µg/mL | 8 µg/mL (≈ 9.34 µM)
2 | CC[C@H]1OC(=O)[C@H](C)C(=O)[C@H](C)[C@@H](O[C@@H]2O[C@H](C)C[C@H](N(C)C)[C@H]2O)[C@](C)(OC)C[C@@H](C)C(=O)[C@H](C)[C@@H](OC(=O)NCCNC(=O)/C=C/c2ccccc2Cl)[C@]1(C)O | 128 µg/mL (≈ 153 µM) | > 128 µg/mL | 2 µg/mL (≈ 2.39 µM) | 128 µg/mL (≈ 153 µM) | 32 µg/mL (≈ 38.2 µM) | 4 µg/mL (≈ 4.77 µM) | > 128 µg/mL | 2 µg/mL (≈ 2.39 µM) | 128 µg/mL (≈ 153 µM) | 32 µg/mL (≈ 38.2 µM)
3 | CC[C@H]1OC(=O)[C@H](C)C(=O)[C@H](C)[C@@H](O[C@@H]2O[C@H](C)C[C@H](N(C)C)[C@H]2O)[C@](C)(OC)C[C@@H](C)C(=O)[C@H](C)[C@@H](OC(=O)NCCNC(=O)/C=C/c2ccc(C)cc2)[C@]1(C)O | 64 µg/mL (≈ 78.2 µM) | > 128 µg/mL | 4 µg/mL (≈ 4.89 µM) | 128 µg/mL (≈ 156 µM) | 64 µg/mL (≈ 78.2 µM) | 8 µg/mL (≈ 9.78 µM) | > 128 µg/mL | 4 µg/mL (≈ 4.89 µM) | > 128 µg/mL | 64 µg/mL (≈ 78.2 µM)
4 | CC[C@H]1OC(=O)[C@H](C)C(=O)[C@H](C)[C@@H](O[C@@H]2O[C@H](C)C[C@H](N(C)C)[C@H]2O)[C@](C)(OC)C[C@@H](C)C(=O)[C@H](C)[C@@H](OC(=O)NCCNC(=O)c2ccc(C)cc2)[C@]1(C)O | 64 µg/mL (≈ 80.8 µM) | > 128 µg/mL | 2 µg/mL (≈ 2.53 µM) | 128 µg/mL (≈ 162 µM) | 128 µg/mL (≈ 162 µM) | 2 µg/mL (≈ 2.53 µM) | > 128 µg/mL | 4 µg/mL (≈ 5.05 µM) | > 128 µg/mL | 32 µg/mL (≈ 40.4 µM)
5 | CC[C@H]1OC(=O)[C@H](C)C(=O)[C@H](C)[C@@H](O[C@@H]2O[C@H](C)C[C@H](N(C)C)[C@H]2O)[C@](C)(OC)C[C@@H](C)C(=O)[C@H](C)[C@@H](OC(=O)NCCNC(=O)c2ccccc2)[C@]1(C)O | 128 µg/mL (≈ 165 µM) | > 128 µg/mL | 4 µg/mL (≈ 5.14 µM) | 128 µg/mL (≈ 165 µM) | 128 µg/mL (≈ 165 µM) | 4 µg/mL (≈ 5.14 µM) | > 128 µg/mL | 4 µg/mL (≈ 5.14 µM) | > 128 µg/mL | 64 µg/mL (≈ 82.3 µM)
6 | CC[C@H]1OC(=O)[C@H](C)C(=O)[C@H](C)[C@@H](O[C@@H]2O[C@H](C)C[C@H](N(C)C)[C@H]2O)[C@](C)(OC)C[C@@H](C)C(=O)[C@H](C)[C@@H](OC(=O)NCCNC(=O)c2ccc(F)cc2)[C@]1(C)O | 64 µg/mL (≈ 80.4 µM) | > 128 µg/mL | 2 µg/mL (≈ 2.51 µM) | 128 µg/mL (≈ 161 µM) | 128 µg/mL (≈ 161 µM) | 1 µg/mL (≈ 1.26 µM) | 128 µg/mL (≈ 161 µM) | 2 µg/mL (≈ 2.51 µM) | > 128 µg/mL | 32 µg/mL (≈ 40.2 µM)
7 | CC[C@H]1OC(=O)[C@H](C)C(=O)[C@H](C)[C@@H](O[C@@H]2O[C@H](C)C[C@H](N(C)C)[C@H]2O)[C@](C)(OC)C[C@@H](C)C(=O)[C@H](C)[C@@H](OC(=O)NCCNC(=O)c2ccc([N+](=O)[O-])cc2)[C@]1(C)O | 64 µg/mL (≈ 77.8 µM) | > 128 µg/mL | 1 µg/mL (≈ 1.22 µM) | 128 µg/mL (≈ 156 µM) | 128 µg/mL (≈ 156 µM) | 1 µg/mL (≈ 1.22 µM) | 128 µg/mL (≈ 156 µM) | 0.25 µg/mL (≈ 0.304 µM) | > 128 µg/mL | 16 µg/mL (≈ 19.4 µM)
8 | CC[C@H]1OC(=O)[C@H](C)C(=O)[C@H](C)[C@@H](O[C@@H]2O[C@H](C)C[C@H](N(C)C)[C@H]2O)[C@](C)(OC)C[C@@H](C)C(=O)[C@H](C)[C@@H](OC(=O)NCCNC(=O)c2ccccc2O)[C@]1(C)O | 64 µg/mL (≈ 80.6 µM) | > 128 µg/mL | 4 µg/mL (≈ 5.04 µM) | 128 µg/mL (≈ 161 µM) | 128 µg/mL (≈ 161 µM) | 8 µg/mL (≈ 10.1 µM) | 128 µg/mL (≈ 161 µM) | 4 µg/mL (≈ 5.04 µM) | > 128 µg/mL | 32 µg/mL (≈ 40.3 µM)
9 | CC[C@H]1OC(=O)[C@H](C)C(=O)[C@H](C)[C@@H](O[C@@H]2O[C@H](C)C[C@H](N(C)C)[C@H]2O)[C@](C)(OC)C[C@@H](C)C(=O)[C@H](C)[C@@H](OC(=O)NCCNC(=O)c2cccc(O)c2)[C@]1(C)O | 64 µg/mL (≈ 80.6 µM) | > 128 µg/mL | 16 µg/mL (≈ 20.2 µM) | 128 µg/mL (≈ 161 µM) | 128 µg/mL (≈ 161 µM) | 16 µg/mL (≈ 20.2 µM) | > 128 µg/mL | 2 µg/mL (≈ 2.52 µM) | > 128 µg/mL | 128 µg/mL (≈ 161 µM)
